Test results: ChEMBL document CHEMBL1926566, “Molecular docking studies of a phlorotannin, dieckol isolated from Ecklonia cava with tyrosinase inhibitory activity” (Bioorg Med Chem, 2012)
Calls of active or inactive are those of the source. The rule behind the calls is not given here.

Columns and labels:
B16-F10 = assay: Antimelanogenic activity in mouse B16F10 cells assessed as inhibition of alpha-MSH-induced melanin formation at 40 to 120 uM after 72 hrs by spectrophotometry; type: functional, cell-based
[1] = biological target: T1, Tyrosinase (Mus musculus) (UniProt P11344); assay: Inhibition of tyrosinase in alpha-MSH-stimulated mouse B16F10 cells assessed as inhibition of L-DOPA oxidation at 40 to 120 uM after 72 hrs by spectrophotometry; type: cell-based; details: B16-F10
T1 sequence (whole entry): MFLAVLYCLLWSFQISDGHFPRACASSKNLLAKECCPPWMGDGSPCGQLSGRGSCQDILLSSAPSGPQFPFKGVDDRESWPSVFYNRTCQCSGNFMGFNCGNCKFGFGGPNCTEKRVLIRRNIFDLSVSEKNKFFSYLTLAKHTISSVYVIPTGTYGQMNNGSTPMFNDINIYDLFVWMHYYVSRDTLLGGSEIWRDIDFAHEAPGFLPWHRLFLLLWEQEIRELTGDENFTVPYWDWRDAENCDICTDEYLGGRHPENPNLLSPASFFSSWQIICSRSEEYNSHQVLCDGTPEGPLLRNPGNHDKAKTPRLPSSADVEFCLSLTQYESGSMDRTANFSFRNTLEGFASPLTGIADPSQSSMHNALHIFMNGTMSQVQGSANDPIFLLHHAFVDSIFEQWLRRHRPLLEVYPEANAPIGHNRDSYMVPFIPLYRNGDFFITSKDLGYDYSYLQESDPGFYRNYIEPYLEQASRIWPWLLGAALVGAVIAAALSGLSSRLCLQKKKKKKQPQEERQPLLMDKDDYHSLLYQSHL

[2] = biological target: T2, Tyrosinase (Agaricus bisporus) (UniProt O42713); assay: Inhibition of mushroom tyrosinase hydroxylation activity using L-tyrosine as substrate at 120 uM after 30 mins by spectrophotometry
T2 sequence (whole entry): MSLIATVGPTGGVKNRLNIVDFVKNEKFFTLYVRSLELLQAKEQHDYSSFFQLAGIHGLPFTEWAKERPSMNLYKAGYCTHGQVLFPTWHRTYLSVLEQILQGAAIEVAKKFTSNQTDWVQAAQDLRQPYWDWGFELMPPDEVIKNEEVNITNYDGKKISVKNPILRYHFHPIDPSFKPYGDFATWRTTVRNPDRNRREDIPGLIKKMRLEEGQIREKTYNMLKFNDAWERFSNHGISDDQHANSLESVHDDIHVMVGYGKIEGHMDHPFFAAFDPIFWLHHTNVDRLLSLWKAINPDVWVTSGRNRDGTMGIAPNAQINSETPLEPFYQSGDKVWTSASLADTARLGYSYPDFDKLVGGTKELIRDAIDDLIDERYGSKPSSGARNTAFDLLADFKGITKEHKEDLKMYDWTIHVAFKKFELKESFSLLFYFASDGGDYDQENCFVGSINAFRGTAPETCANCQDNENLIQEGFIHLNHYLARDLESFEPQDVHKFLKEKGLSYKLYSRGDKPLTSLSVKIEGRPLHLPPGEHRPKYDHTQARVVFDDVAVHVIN

[3] = biological target: T2, Tyrosinase (Agaricus bisporus); assay: Non-competitive inhibition of mushroom tyrosinase assessed as inhibition of dopachrome formation by Lineweaver-Burk plot analysis
[4] = Cytotoxicity against mouse B16F10 cells assessed as cell viability at 40 to 120 uM after 72 hrs by MTT assay; type: cell-based, B16-F10
Tyrosinase = biological target: T3, Tyrosinase (Agaricus bisporus, UniProt O42713); assay: (§1) Inhibition of mushroom tyrosinase hydroxylation activity using L-tyrosine as substrate after 30 mins by spectrophotometry
T3 sequence (O42713 whole entry): T2 sequence (whole entry)

[5] = biological target: T2, Tyrosinase (Agaricus bisporus); assay: as §1

inhibition [1]	inhibition [2] [%]	inhibition [3]	IC50 (Tyrosinase) [µM]	inhibition [5]	Compound	Activity (B16-F10)	viability at 72 h, up to 120 µM [4] [%]
Active	–	–	–	–	OC[C@H]1O[C@@H](Oc2ccc(O)cc2)[C@H](O)[C@@H](O)[C@@H]1O	Active	–
Active	89.3	Active	20	Dose-dependent effect	Oc1cc(O)cc(Oc2c(O)cc(O)c3c2Oc2c(O)cc(Oc4c(O)cc(Oc5c(O)cc(O)c6c5Oc5c(O)cc(O)cc5O6)cc4O)cc2O3)c1 [DIECKOL]	Active	> 95
